Assay results taken from patent US20250223260A1, “Substituted Pyrrolidinyl And Piperidinyl Compounds And Related Methods Of Treatment” (Alkermes, Inc., priority 2022, published 2025).

Biological target: T1, human orexin-2 receptor (OX2R) (Homo sapiens, UniProt O43614)
T1 construct: expressed in transfected cells
T1 sequence (O43614 1-444): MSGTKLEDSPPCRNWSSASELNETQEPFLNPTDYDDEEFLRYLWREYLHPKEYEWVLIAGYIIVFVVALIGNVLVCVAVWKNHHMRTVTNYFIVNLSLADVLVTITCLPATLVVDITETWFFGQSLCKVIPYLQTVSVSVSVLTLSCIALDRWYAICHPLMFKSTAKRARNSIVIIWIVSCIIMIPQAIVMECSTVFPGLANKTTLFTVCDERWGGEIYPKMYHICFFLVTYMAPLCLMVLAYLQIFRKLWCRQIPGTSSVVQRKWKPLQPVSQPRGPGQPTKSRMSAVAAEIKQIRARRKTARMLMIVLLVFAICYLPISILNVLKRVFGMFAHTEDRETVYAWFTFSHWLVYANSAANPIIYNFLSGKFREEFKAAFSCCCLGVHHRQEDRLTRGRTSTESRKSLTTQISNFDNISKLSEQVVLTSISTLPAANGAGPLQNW
Experiment: Human OX2R IP1 assay
Type: cell-based
Conditions: T-Rex CHO cells stably overexpressing human OX2R; IP1 accumulation (HTRF); 1 hr at 37 degrees C
Procedure: T-Rex CHO cells stably overexpressing the human orexin-2 receptor (OX2R) are induced overnight with 1 μg/mL of doxycycline in a T225 flask. 24 hours post induction, cells are lifted with accutase and plated into a 384-well proxy plate at 30,000 cells/well. Cells are then treated with different test compounds in 1× stimulation buffer containing 10 mM Hepes, 1 mM CaCl2, 0.5 mM MgCl2, 4.2 mM KCl, 146 mM NaCl, 5.5 mM glucose, and 50 mM LiCl, pH 7.4, for 1 hr at 37 degrees C. Following incubation, the reaction is terminated by the addition of detection mix, which is composed of IP1-d2 and anti-IP1-cryptate diluted in lysis buffer as well as 1× stimulation buffer. The plates are allowed to incubate for 1 hour at room temperature and are then read in the EnVision® multimode plate reader, measuring inositol phosphate levels.
Cisbio IP1 is a cell-based functional assay quantifying the accumulation of inositol monophosphate (IP), a metabolite released as a result of orexin 2 receptor activation through the phospholipase C-Gq signaling pathway. This is a competitive immunoassay in which the IP1 produced by the cells upon receptor activation competes with the IP1 analog coupled to the d2 fluorophore (acceptor) for binding to an anti-IP1 monoclonal antibody labeled with Eu cryptate (donor). The measured HTRF-FRET based signal is inversely proportional to the IP1 concentration produced.
The EC50 values reported in Table 2 were obtained according to the human OX2R IP1 assay described above. Data are the mean EC50 values ±S.E.M.

EC50 | Structure (SMILES)
0.1 to 10 µM | CS(=O)(=O)N[C@@H]1CCN(C(=O)C2CC2)C[C@@H]1OC[C@H]1CC[C@@H](c2ccccc2)CC1 (single isomer, unassigned) [Compound 37, N-[cis-1-cyclopropanecarbonyl-3-[(cis-4-phenylcyclohexyl)methoxy]piperidin-4-yl]methanesulfonamide]
0.1 to 10 µM | CC(C)(O)C(=O)N1CC[C@@H](NS(C)(=O)=O)[C@@H](OC[C@H]2CC[C@@H](c3ccccc3)CC2)C1 (single isomer, unassigned) [Compound 38]
0.1 to 10 µM | CS(=O)(=O)N[C@H]1CCN(c2ncco2)C[C@H]1OC[C@H]1CC[C@@H](c2ccccc2)CC1 (single isomer, unassigned) [Compound 39, N-(cis-1-(oxazol-2-yl)-3-((cis-4-phenylcyclohexyl)methoxy)piperidin-4-yl)methanesulfonamide]
0.1 to 10 µM | COC(=O)N1CC[C@H](NS(C)(=O)=O)[C@H](OC[C@H]2CC[C@@H](c3ccccc3)CC2)C1 (single isomer, unassigned) [Compound 40]
> 10 µM | COC(=O)N1CC[C@@H](NS(C)(=O)=O)[C@@H](OC[C@H]2CC[C@@H](c3ccccc3)CC2)C1 (single isomer, unassigned) [Compound 41]
< 0.1 µM | CS(=O)(=O)N[C@@H]1CCN(C(=O)C2(O)CCC2)C[C@@H]1OC[C@H]1CC[C@@H](c2ccccc2)CC1 (single isomer, unassigned) [Compound 43]
> 10 µM | CS(=O)(=O)N[C@@H]1CCN(C(=O)C2(O)CCC2)C[C@@H]1OCC1CCC(c2ccccc2)CC1 (single isomer, unassigned) [Compound 44]
0.1 to 10 µM | CC1(C(=O)N2CC[C@H](NS(C)(=O)=O)[C@H](OCC3CCC(c4ccccc4)CC3)C2)COC1 (single isomer, unassigned) [Compound 45]
> 10 µM | CC1(C(=O)N2CC[C@@H](NS(C)(=O)=O)[C@@H](OCC3CCC(c4ccccc4)CC3)C2)COC1 (single isomer, unassigned) [Compound 46]
0.1 to 10 µM | Cn1ccc(N2CC[C@H](NS(C)(=O)=O)[C@H](OC[C@H]3CC[C@@H](c4ccccc4)CC3)C2)n1 (single isomer, unassigned) [Compound 47]
> 10 µM | Cn1ccc(N2CC[C@@H](NS(C)(=O)=O)[C@@H](OC[C@H]3CC[C@@H](c4ccccc4)CC3)C2)n1 (single isomer, unassigned) [Compound 48]
< 0.1 µM | CS(=O)(=O)N[C@H]1CCN(C(=O)C2(F)CCC2)C[C@H]1OCC1CCC(c2ccccc2)CC1 (single isomer, unassigned) [Compound 49]
0.1 to 10 µM | CS(=O)(=O)N[C@@H]1CCN(C(=O)C2(F)CCC2)C[C@@H]1OCC1CCC(c2ccccc2)CC1 (single isomer, unassigned) [Compound 50]
> 10 µM | CS(=O)(=O)N[C@H]1CCN(C2COC2)C[C@H]1OC[C@H]1CC[C@@H](c2ccccc2)CC1 (single isomer, unassigned) [Compound 51]
> 10 µM | CS(=O)(=O)N[C@@H]1CCN(C2COC2)C[C@@H]1OC[C@H]1CC[C@@H](c2ccccc2)CC1 (single isomer, unassigned) [Compound 52]
> 10 µM | Cn1ccnc1N1CC[C@H](NS(C)(=O)=O)[C@H](OCC2CCC(c3ccccc3)CC2)C1 (single isomer, unassigned) [Compound 53]
0.1 to 10 µM | Cn1ccnc1N1CC[C@@H](NS(C)(=O)=O)[C@@H](OC[C@H]2CC[C@@H](c3ccccc3)CC2)C1 (single isomer, unassigned) [Compound 54]

EC50 | Structure (SMILES)
< 0.1 µM | CS(=O)(=O)N[C@H]1CCN(c2cccnn2)C[C@H]1OC[C@H]1CC[C@@H](c2ccccc2)CC1 (single isomer, unassigned) [Compound 55]
0.1 to 10 µM | CS(=O)(=O)N[C@@H]1CCN(c2cccnn2)C[C@@H]1OC[C@H]1CC[C@@H](c2ccccc2)CC1 (single isomer, unassigned) [Compound 56]
> 10 µM | CS(=O)(=O)N[C@H]1CCN(CC2COC2)C[C@H]1OC[C@H]1CC[C@@H](c2ccccc2)CC1 (single isomer, unassigned) [Compound 57]
> 10 µM | CS(=O)(=O)N[C@@H]1CCN(CC2COC2)C[C@@H]1OC[C@H]1CC[C@@H](c2ccccc2)CC1 (single isomer, unassigned) [Compound 58]
0.1 to 10 µM | Cn1cnc(N2CC[C@H](NS(C)(=O)=O)[C@H](OCC3CCC(c4ccccc4)CC3)C2)c1 (single isomer, unassigned) [Compound 59]
> 10 µM | Cn1cnc(N2CC[C@@H](NS(C)(=O)=O)[C@@H](OC[C@H]3CC[C@@H](c4ccccc4)CC3)C2)c1 (single isomer, unassigned) [Compound 60]
> 10 µM | C[C@@H](C1COC1)N1CC[C@H](NS(C)(=O)=O)[C@H](OCC2CCC(c3ccccc3)CC2)C1 (single isomer, unassigned) [Compound 61]
> 10 µM | C[C@@H](C1COC1)N1CC[C@@H](NS(C)(=O)=O)[C@@H](OCC2CCC(c3ccccc3)CC2)C1 (single isomer, unassigned) [Compound 62]
> 10 µM | C[C@H](C1COC1)N1CC[C@H](NS(C)(=O)=O)[C@H](OCC2CCC(c3ccccc3)CC2)C1 (single isomer, unassigned) [Compound 63]
> 10 µM | C[C@H](C1COC1)N1CC[C@@H](NS(C)(=O)=O)[C@@H](OCC2CCC(c3ccccc3)CC2)C1 (single isomer, unassigned) [Compound 64]
< 0.1 µM | CS(=O)(=O)N[C@H]1CCN(C(=O)C2CCC2)C[C@H]1OCC1CCC(c2ccccc2)CC1 (single isomer, unassigned) [Compound 65]
0.1 to 10 µM | CS(=O)(=O)N[C@@H]1CCN(C(=O)C2CCC2)C[C@@H]1OCC1CCC(c2ccccc2)CC1 (single isomer, unassigned) [Compound 66]
< 0.1 µM | CS(=O)(=O)N[C@@H]1CCN(C(=O)C2(F)CC2)C[C@@H]1OC[C@H]1CC[C@@H](c2ccccc2)CC1 (single isomer, unassigned) [Compound 67]
0.1 to 10 µM | CS(=O)(=O)N[C@@H]1CCN(C(=O)C2(F)CC2)C[C@@H]1OCC1CCC(c2ccccc2)CC1 (single isomer, unassigned) [Compound 68]
0.1 to 10 µM | CS(=O)(=O)N[C@H]1CCN(CC2(F)CCC2)C[C@H]1OCC1CCC(c2ccccc2)CC1 (single isomer, unassigned) [Compound 69]
> 10 µM | CS(=O)(=O)N[C@@H]1CCN(CC2(F)CCC2)C[C@@H]1OCC1CCC(c2ccccc2)CC1 (single isomer, unassigned) [Compound 70]
0.1 to 10 µM | COC1(C(=O)N2CC[C@H](NS(C)(=O)=O)[C@H](OC[C@H]3CC[C@@H](c4ccccc4)CC3)C2)CCC1 [Compound 42]
